ChEMBL document CHEMBL1201862, “PubChem BioAssay data set” (2004)
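Growth conditions: 96-well plates. Treatment: test compound, 48 hours, 5 concentrations. Analysis: linear interpolation between bracketing concentrations; unreached endpoints set to highest concentration. GI50 marks 50% less growth.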 Activity calls are given as the source filed them. Cut-off read from the data, not from the text of the source: active = GI50 up to about 1.1 µM and inactive = higher.

What was measured:
Assay in all cases: inhibition of tumour cell growth, NCI panel, 48 h
[1] = system: DU-145
[2] = system: NCI-H226
[3] = system: SR
[4] = system: SN12C
[5] = system: Hs-578T
[6] = system: XF498
[7] = system: EKVX
[8] = system: KM-20L2
[9] = system: HT-29
[10] = system: LOX IMVI
[11] = system: HOP-18
[12] = system: SK-MEL-2
[13] = system: RXF 393
[14] = system: OVCAR-8
[15] = system: SNB-19
[16] = system: LXFL 529
[17] = system: SF-539
[18] = system: SNB-78
[19] = system: SF-268
[20] = system: Malme-3M
[21] = system: SK-MEL-28
[22] = system: SK-MEL-5
[23] = system: SK-OV-3
[24] = system: T47D
[25] = system: OVCAR-3
[26] = system: UO-31
[27] = system: CCRF-CEM
[28] = system: UACC-62
[29] = system: HOP-92
[30] = system: HL-60
[31] = system: BT-549
[32] = system: COLO 205
[33] = system: OVCAR-5
[34] = system: IGROV-1
[35] = system: SNB-75
[36] = system: HCT-15
[37] = system: CAKI-1
[38] = system: MCF7
[39] = system: MOLT-4
[40] = system: UACC-257
[41] = system: U-251
[42] = system: HCT-116
[43] = system: A549
[44] = system: 786-0
[45] = system: MDA-MB-435
[46] = system: TK-10
[47] = system: NCI/ADR-RES
[48] = system: NCI-H522
[49] = system: ACHN
[50] = system: A498
[51] = system: HCC 2998
[52] = system: SW-620
[53] = system: M19-MEL
[54] = system: K562
[55] = system: MDA-N
[56] = system: PC-3
[57] = system: RPMI-8226
[58] = system: KM12
[59] = system: DMS-273
[60] = system: M14
[61] = system: HOP-62
[62] = system: NCI-H23
[63] = system: NCI-H460
[64] = system: MDA-MB-231
[65] = system: SF-295
[66] = system: DLD-1
[67] = system: OVCAR-4
[68] = system: DMS-114

With `NC(=O)c1ncn2c(=O)n(CCCl)nnc12` [MITOZOLOMIDE] the GI50 [1] was 123 µM (inactive), the GI50 [2] was 158 µM (inactive) and the GI50 [3] was 47.3 µM (inactive). For the same molecule, the GI50 [4] was 115 µM (inactive), the GI50 [5] was 208 µM (inactive) and the GI50 [6] was 12.1 µM (inactive). For the same molecule, the GI50 [7] was 197 µM (inactive), the GI50 [8] was 141 µM (inactive) and the GI50 [9] was 156 µM (inactive). For the same molecule, the GI50 [10] was 22.8 µM (inactive), the GI50 [11] was 323 µM (inactive) and the GI50 [12] was 249 µM (inactive). The GI50 [13] was 160 µM (inactive), the GI50 [14] was 101 µM (inactive) and the GI50 [15] was 93.5 µM (inactive). For the same molecule, the GI50 [16] was > 100 µM (inactive), the GI50 [17] was 31 µM (inactive) and the GI50 [18] was 185 µM (inactive). For the same molecule, the GI50 [19] was 31.6 µM (inactive), the GI50 [20] was 145 µM (inactive) and the GI50 [21] was 252 µM (inactive). The GI50 [22] was 156 µM (inactive), the GI50 [23] was 52.6 µM (inactive) and the GI50 [24] was 214 µM (inactive). The GI50 [25] was 205 µM (inactive), the GI50 [26] was 236 µM (inactive) and the GI50 [27] was 32.9 µM (inactive). For the same molecule, the GI50 [28] was 24.7 µM (inactive), the GI50 [29] was 136 µM (inactive) and the GI50 [30] was 30.8 µM (inactive). For the same molecule, the GI50 [31] was 83.2 µM (inactive), the GI50 [32] was 112 µM (inactive) and the GI50 [33] was 225 µM (inactive). The GI50 [34] was 132 µM (inactive), the GI50 [35] was 50 µM (inactive) and the GI50 [36] was 175 µM. The GI50 [37] was 107 µM (inactive), the GI50 [38] was 120 µM (inactive) and the GI50 [39] was 45.2 µM (inactive). The GI50 [40] was 159 µM (inactive), the GI50 [41] was 40.4 µM (inactive) and the GI50 [42] was 132 µM (inactive). The GI50 [43] was 180 µM (inactive), the GI50 [44] was 28.8 µM (inactive) and the GI50 [45] was 170 µM (inactive). For the same molecule, the GI50 [46] was 229 µM (inactive), the GI50 [47] was 168 µM (inactive) and the GI50 [48] was 131 µM (inactive). For the same molecule, the GI50 [49] was 60.4 µM (inactive), the GI50 [50] was 191 µM (inactive) and the GI50 [51] was 172 µM (inactive). The GI50 [52] was 135 µM (inactive), the GI50 [53] was 172 µM (inactive) and the GI50 [54] was 94.4 µM (inactive). The GI50 [55] was 137 µM (inactive), the GI50 [56] was 177 µM (inactive) and the GI50 [57] was 229 µM (inactive). The GI50 [58] was 180 µM (inactive), the GI50 [59] was 57.4 µM (inactive) and the GI50 [60] was 195 µM (inactive). The GI50 [61] was 29.5 µM (inactive), the GI50 [62] was 149 µM (inactive) and the GI50 [63] was 50.2 µM (inactive). For the same molecule, the GI50 [64] was 220 µM (inactive), the GI50 [65] was 37.7 µM (inactive) and the GI50 [66] was 182 µM (inactive). The GI50 [67] was 187 µM (inactive) and the GI50 [68] was 19.8 µM (inactive).
